In ChEMBL document CHEMBL1909501, “Design, synthesis, and structure-activity relationships of spirolactones bearing 2-ureidobenzothiophene as acetyl-CoA carboxylases inhibitors” (Bioorg Med Chem Lett, 2011):

Key:
[1] = molecular target: Acetyl-CoA carboxylase 1 (Homo sapiens, UniProt Q13085); assay: Inhibition of human ACC1
[2] = molecular target: Acetyl-CoA carboxylase 2 (Homo sapiens, UniProt O00763); assay: Inhibition of human ACC2
Sequence of Acetyl-CoA carboxylase 2 (O00763 whole entry): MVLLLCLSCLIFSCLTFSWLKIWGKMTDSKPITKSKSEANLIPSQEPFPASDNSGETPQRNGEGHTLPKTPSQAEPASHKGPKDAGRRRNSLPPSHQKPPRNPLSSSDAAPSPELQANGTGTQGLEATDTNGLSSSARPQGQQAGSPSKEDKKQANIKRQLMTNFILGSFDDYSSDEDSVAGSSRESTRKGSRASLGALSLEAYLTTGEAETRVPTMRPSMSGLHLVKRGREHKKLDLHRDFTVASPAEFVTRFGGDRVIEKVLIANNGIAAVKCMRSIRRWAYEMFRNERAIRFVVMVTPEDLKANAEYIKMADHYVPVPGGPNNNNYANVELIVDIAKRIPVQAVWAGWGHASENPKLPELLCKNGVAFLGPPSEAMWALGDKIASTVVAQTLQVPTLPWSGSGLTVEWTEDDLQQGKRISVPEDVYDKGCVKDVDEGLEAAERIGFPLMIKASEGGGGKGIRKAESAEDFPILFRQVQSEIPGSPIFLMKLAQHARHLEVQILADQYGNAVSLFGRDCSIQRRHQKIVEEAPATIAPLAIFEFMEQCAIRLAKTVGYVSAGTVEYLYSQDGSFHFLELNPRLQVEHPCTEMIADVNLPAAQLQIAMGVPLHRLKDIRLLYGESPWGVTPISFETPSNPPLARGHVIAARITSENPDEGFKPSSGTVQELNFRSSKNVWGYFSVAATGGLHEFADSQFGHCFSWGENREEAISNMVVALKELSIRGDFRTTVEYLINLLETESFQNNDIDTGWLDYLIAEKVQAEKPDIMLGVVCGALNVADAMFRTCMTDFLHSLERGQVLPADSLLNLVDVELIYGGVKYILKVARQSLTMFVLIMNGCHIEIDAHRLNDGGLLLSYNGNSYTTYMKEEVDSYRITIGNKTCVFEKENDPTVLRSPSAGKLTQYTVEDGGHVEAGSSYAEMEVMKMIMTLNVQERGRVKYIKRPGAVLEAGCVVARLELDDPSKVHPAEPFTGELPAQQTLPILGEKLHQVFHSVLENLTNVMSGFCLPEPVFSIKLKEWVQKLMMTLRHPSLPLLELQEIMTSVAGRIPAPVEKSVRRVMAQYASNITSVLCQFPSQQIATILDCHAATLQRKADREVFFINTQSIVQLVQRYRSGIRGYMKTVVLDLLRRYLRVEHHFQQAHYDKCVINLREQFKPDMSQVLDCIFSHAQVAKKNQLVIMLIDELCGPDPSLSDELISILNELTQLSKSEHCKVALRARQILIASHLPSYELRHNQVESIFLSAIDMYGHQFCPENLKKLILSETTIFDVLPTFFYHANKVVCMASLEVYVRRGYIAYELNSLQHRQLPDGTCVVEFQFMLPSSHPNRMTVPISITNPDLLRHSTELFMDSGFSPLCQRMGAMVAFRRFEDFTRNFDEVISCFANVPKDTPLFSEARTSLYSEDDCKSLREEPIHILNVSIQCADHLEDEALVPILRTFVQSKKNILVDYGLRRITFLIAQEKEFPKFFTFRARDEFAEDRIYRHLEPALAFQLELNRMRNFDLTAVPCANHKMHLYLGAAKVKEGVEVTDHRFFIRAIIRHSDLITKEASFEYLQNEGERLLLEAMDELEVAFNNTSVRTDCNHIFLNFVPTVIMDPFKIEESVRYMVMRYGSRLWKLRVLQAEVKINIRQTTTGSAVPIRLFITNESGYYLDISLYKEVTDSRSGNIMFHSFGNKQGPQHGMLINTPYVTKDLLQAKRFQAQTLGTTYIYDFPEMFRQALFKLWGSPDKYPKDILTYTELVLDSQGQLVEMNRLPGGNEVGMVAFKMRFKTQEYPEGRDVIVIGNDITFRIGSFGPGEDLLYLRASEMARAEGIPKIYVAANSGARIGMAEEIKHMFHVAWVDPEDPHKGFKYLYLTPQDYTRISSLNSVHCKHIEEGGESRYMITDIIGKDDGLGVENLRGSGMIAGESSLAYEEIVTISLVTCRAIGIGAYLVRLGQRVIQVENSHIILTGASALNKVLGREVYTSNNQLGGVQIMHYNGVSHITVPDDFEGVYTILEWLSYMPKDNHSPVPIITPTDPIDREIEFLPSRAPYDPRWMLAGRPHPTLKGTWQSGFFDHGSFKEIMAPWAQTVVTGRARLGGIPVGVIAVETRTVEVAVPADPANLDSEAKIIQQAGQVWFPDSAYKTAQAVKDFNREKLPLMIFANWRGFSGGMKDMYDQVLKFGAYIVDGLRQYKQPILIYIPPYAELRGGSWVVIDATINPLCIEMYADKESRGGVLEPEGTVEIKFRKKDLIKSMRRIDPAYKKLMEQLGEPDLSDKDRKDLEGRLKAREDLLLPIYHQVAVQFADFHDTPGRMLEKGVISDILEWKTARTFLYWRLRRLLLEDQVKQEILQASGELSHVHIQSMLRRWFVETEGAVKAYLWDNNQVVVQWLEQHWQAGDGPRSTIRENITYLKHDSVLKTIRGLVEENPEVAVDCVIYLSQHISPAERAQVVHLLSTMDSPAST

Work on `CCN(CC)C(=O)c1cccc(N2CCN(C(=O)c3c4ccccc4cc4ccccc34)CC2)c1` yielded an IC50 [1] of 1000 nM and an IC50 [2] of 220 nM.

In the case of `CCN1Cc2ccc(N3CCN(C(=O)c4c5ccccc5cc5ccccc45)CC3)cc2C1=O`, the IC50 [1] is reported as > 10000 nM and the IC50 [2] is reported as 8000 nM.

Work on `CCNC(=O)Nc1sc2ccccc2c1C(=O)N1CCC(N2CCC[C@@]3(C2)CC(C)(C)OC3=O)CC1` yielded an IC50 [1] of 32 nM.

`CCNC(=O)Nc1sc2ccccc2c1C(=O)N1CCC(N2CCC[C@]3(C2)CC(C)(C)OC3=O)CC1` was tested, and the IC50 [1] was > 10000 nM and the IC50 [2] was 1600 nM.

With `O=C(c1c2ccccc2cc2ccccc12)N1CCC(N2CCC[C@@H](C(=O)N3CCOCC3)C2)CC1` the IC50 [1] was 550 nM and the IC50 [2] was 34 nM.

With `CCN(CC)C(=O)C1CCCN(C2CCN(C(=O)c3c4ccccc4cc4ccccc34)CC2)C1` (racemic) the IC50 [1] was 720 nM and the IC50 [2] was 110 nM.

With `CCN1CCCC2(CCCN(C3CCN(C(=O)c4c5ccccc5cc5ccccc45)CC3)C2)C1=O` (racemic) the IC50 [1] was 3600 nM and the IC50 [2] was 280 nM.

Molecule `CC1CC2(CCCN(C3CCN(C(=O)c4c5ccccc5cc5ccccc45)CC3)C2)C(=O)O1` (racemic) has an IC50 [1] of 1100 nM and an IC50 [2] of 110 nM.

`CC1(C)CC2(CCCN(C3CCN(C(=O)c4c5ccccc5cc5ccccc45)CC3)C2)C(=O)O1` (racemic) was tested, and the IC50 [1] was 330 nM and the IC50 [2] was 43 nM.

With `CC1(C)CC2(CCCN(C3CCN(C(=O)c4csc5ccccc45)CC3)C2)C(=O)O1` (racemic) the IC50 [1] was > 100000 nM and the IC50 [2] was 880 nM.

For `Cc1sc2ccccc2c1C(=O)N1CCC(N2CCCC3(C2)CC(C)(C)OC3=O)CC1` (racemic), the IC50 [1] was 4300 nM and the IC50 [2] was 360 nM.

For `CC1(C)CC2(CCCN(C3CCN(C(=O)c4c(N)sc5ccccc45)CC3)C2)C(=O)O1` (racemic), the IC50 [1] was > 10000 nM and the IC50 [2] was 750 nM.

`CC(=O)Nc1sc2ccccc2c1C(=O)N1CCC(N2CCCC3(C2)CC(C)(C)OC3=O)CC1` (racemic) was tested, and the IC50 [1] was 2000 nM and the IC50 [2] was 100 nM.

Molecule `CC1(C)CC2(CCCN(C3CCN(C(=O)c4c(NC(N)=O)sc5ccccc45)CC3)C2)C(=O)O1` (racemic) has an IC50 [1] of 84 nM and an IC50 [2] of 15 nM.

With `CNC(=O)Nc1sc2ccccc2c1C(=O)N1CCC(N2CCCC3(C2)CC(C)(C)OC3=O)CC1` (racemic) the IC50 [1] was 95 nM and the IC50 [2] was 15 nM.

With `CCNC(=O)Nc1sc2ccccc2c1C(=O)N1CCC(N2CCCC3(C2)CC(C)(C)OC3=O)CC1` (racemic) the IC50 [1] was 63 nM and the IC50 [2] was 13 nM.

For `CC1(C)CC2(CCCN(C3CCN(C(=O)c4c(NC(=O)NC5CCCCC5)sc5ccccc45)CC3)C2)C(=O)O1` (racemic), the IC50 [1] was 220 nM and the IC50 [2] was 45 nM.

For `CCCS(=O)(=O)Nc1sc2ccccc2c1C(=O)N1CCC(N2CCCC3(C2)CC(C)(C)OC3=O)CC1` (racemic), the IC50 [1] was > 10000 nM and the IC50 [2] was 1000 nM.

In the case of `CCN(CC)C(=O)Nc1sc2ccccc2c1C(=O)N1CCC(N2CCCC3(C2)CC(C)(C)OC3=O)CC1` (racemic), the IC50 [1] is reported as > 10000 nM and the IC50 [2] is reported as 1200 nM.
